Results: patent US9216956B2, “Deuterium-enriched 4-hydroxy-5-methoxy-N,1-dimethyl-2-oxo-N-[(4-trifluoro-methyl)phenyl]-1,2-dihydroquinoline-3-carboxamide” (ACTIVE BIOTECH AB, priority 2011, dated 2015)
Several values for one entry are separate records, joined by “and”; a condition that tells them apart may be missing. Equal entries are not always repeated.

How the values were obtained:
[1] = In vivo pharmacokinetics in rat: plasma levels of parents and amide-N demethyl metabolite after 1:1 mixture; conditions: for Plasma level: peroral 2.5 mg/kg of each compound (1:1 mixture)
Excerpt: Therefore, the pharmacokinetic characteristics of the amide-N methyl deuterated ABR-215050 (herein below referred to as ABR-215050-dx), wherein the amide-N methyl moiety was tri-deuterated, compared to the non-deuterated parent compound were studied in rat. […] In other words: relative to ABR-215050, the in vivo formation of ABR-215691 was reduced to only 25% when ABR-215050-dx was used.
A deuterated (also referred to as deuterium-enriched) ABR-215050 was synthesized, wherein the amide-N methyl moiety was trideuterated (ABR-215050-dx). This deuterated compound was diluted with non-deuterated ABR-215050 to a molar ratio of 1:1. The 1:1 equivalent molar mixture was administrated to rats in an in vivo experiment. Because of additional 13-carbon labeling in the quinoline scaffold, the formed amide-N demethyl metabolites could be measured selectively by means of HPLC-MS (High performance Liquid Chromatography with Mass Spectrometric detection). In Table 5, the plasma levels of ABR-215050-dx and ABR-215050 (in nM) measured in 4 different rats are shown, as well as the ratio of these two compounds.

LNCaP tumor = assay: Anti-tumor effect on subcutaneous LNCaP-19 tumor in Nude BALB/c mice; format: in vivo, mouse; conditions: 10 mg/kg/day via drinking water from day 7
Description: The anti-tumor effect of deuterated ABR-215050 was studied in mouse.
The castration resistant subline LNCaP-19 was previously established from LNCaP cells (12). Cells were maintained as previously described (13). The LNCaP-19 cells were between passage 10 and 23 when used in the experiments. Passage 1 is defined as the first passage in our laboratory. The cells were tested and found free from mycoplasma.
Male athymic Nude BALB/c mice (age 8 weeks) were purchased from Taconic (Lille Skensved, Denmark). For subcutaneous implantation, one million tumor cells suspended in 200 μl Matrigel (BD Bioscience, Bedford, Mass.) were inoculated on the flank of the mice. The tumor size was measured by a caliper once a week throughout the experiment and the tumor take was 75% in the untreated control group (n=12). In the tumor growth experiment, ABR-215050-dx (10 mg/kg/day) was administered via drinking water from day 7. To assure appropriate dose was given with no significant fluctuations, water consumption was monitored for each animal cage during the entire experiment. […] Animals were sacrificed when the average tumor size for the control group reached a volume of 900±100 mm^3 or when the tumor volume for an individual animal reached 1200 mm^3 The results are illustrated in FIG. 7.

CYP1A2 = assay: In vivo CYP1A2 induction in rat, MROD activity of liver microsomes; conditions: rat, in vivo
Description: (§1) The in vivo induction of CYP1A1 and CYP1A2 after repeated administration of ABR-215050 and of ABR-215050-dx, respectively, was studied in rat.
(§2) Test preparations B and C and blank preparation A were made as follows: For preparation B, ABR-215050 was dissolved in NaOH and sterile water at a concentration of 0.5 mg/mL. The pH of the solution was adjusted to pH 7.4-8.5. Preparation C was made in the same way, using ABR-215050-dx. Preparation A was a blank containing only water. The preparations were stored in a refrigerator for a maximum of one week before use.
(§3) On arrival at the laboratory, the test animals were 9 weeks old Sprague Dawley male rats having a body weight of 250 g. They were divided into 3 groups and were allowed to acclimatize for at least 7 days before the test. During the whole acclimatization and test period, the animals received water and feed (Labfor R70, form Kimstad, Sweden) ad libitum, and were kept under a 12 hours dark/12 hours light cycle, at a temperature of 20±2° C. and a relative humidity of 50±15%.
(§4) Before administration of any test preparation, the body weight of each animal was measured and the individual dose to be administered to an animal was determined based on the weight of the animal. Administration was performed perorally during 4 days, cf.
(§5) At 24 h after administration of the final dose, the animals were weighed and from each animal a final blood sample was withdrawn for a pharmacokinetic analysis. The animals then were euthanized and from each one the liver was withdrawn, weighed, and immediately frozen in crushed dry ice. The livers then were stored at −70° C. until preparation of microsomes.
(§6) Microsomes were prepared according to the method M-0287 “Preparation of subcellular fractions from animal tissues” and then kept at −70° C. until analysis.
(§7) The total protein concentration of the microsomal fraction was determined according to the method M-0289 “Determination of Protein according to Hartree”.

CYP1A1 = assay: In vivo CYP1A1 induction in rat, EROD activity of liver microsomes
Description: as §1, §2, §3, §4, §5, §6, §7

[2] = test system: AhR (Aryl hydrocarbon Receptor) mediated induction of CYP1A1; assay: TV-cell assay: luciferase gene reporter assay for AhR mediated induction of CYP1A1 in TV101L (HepG2) cells; format: cell-based, human; conditions: TV-cell assay
Description: ABR-215050 was tested with respect to its CYP1A inducing capability in vitro in a TV-cell assay. This assay is a luciferase gene reporter assay developed for the measurement of AhR (Aryl hydrocarbon Receptor) mediated induction of CYP1A. Human CYP1A promoters and 5′-flanking sequences were cloned into firefly luciferase expression vectors and stably integrated into the human hepatoma cell line, HepG2 (9). The isolated cell line was renamed TV101L.
The mechanism for transcription of CYP1A1 involves the binding of the inducer to the Ah receptor followed by a translocation of the ligand-Ah-receptor complex to the nucleus, where it binds to specific enhancer sequences in the 5′-flanking region of the CYP1A1 gene. These sequences are referred to as xenobiotic responsive elements (XREs).
A luciferase gene reporter assay was used for the measurement of AhR mediated induction of CYP1A1. Human CYP1A1 promoters and 5′-flanking sequences were cloned into firefly luciferase expression vectors and stably integrated into the human hepatoma cell line, HepG2 (8). The isolated cell line was renamed TV101L.
The cells were seeded in 96 well tissue culture plates 24-48 hours prior to treatment with the test compound. After the addition of ABR-215050 at a concentration of 1, 10 and 100 μM, the cells were further incubated for 12-24 hours. The cells were harvested by the addition of lysis buffer followed by a freezing/thawing cycle. An enzymatic assay was used for the determination of luciferase activity.
The same assay as used for ABR-215050 was used. The concentrations of ABR-215691 that were used and the results obtained, expressed as fold induction of luciferase expression, are shown in Table 4 and in FIG. 1.

Water solubility = format: physicochemical
Excerpt: The water solubility of ABR-215050 and of its metabolites also was investigated. It is a well-known fact that metabolism in general aims to transform compounds to more water soluble entities (10), which mostly decreases toxicity but also facilitates renal elimination. […]

Compound: [2H]C([2H])([2H])N(C(=O)c1c(O)c2c(OC)cccc2n(C)c1=O)c1ccc(C(F)(F)F)cc1 [ABR-215050-dx, 4-Hydroxy-5-methoxy-N-deuteriomethyl-1-methyl-2-oxo-N-[(4-trifluoromethyl)phenyl]-1,2-dihydroquinoline-3-carboxamide]
- Ratio of metabolite plasma levels, Mean ([1]; mean of rats 1-4): 0.26
- Reduction of amide-N demethylation, Mean ([1]; mean of rats 1-4): 74.1%
- Plasma levels of ABR-215691 from the administered compound, Mean ([1]; mean of rats 1-4 (1-4 h), peroral 2.5 mg/kg): 74.8 nM
- formation of demethylated metabolite compared to non-deuterium labeled ABR-215050 (in words) ([1]; rat): diminished by as much as a factor of four
- in vivo formation of ABR-215691 relative to ABR-215050 ([1]; rat): 25%
- Ratio ABR-215050-dx/ABR-215050 (plasma levels) ([1]; rat No 1, 1 h): 0.97
- Ratio of metabolite plasma levels (ABR-215691 from ABR-215050-dx / from ABR-215050) ([1]; rat No 1, 1 h): 0.24
- Reduction of amide-N demethylation ([1]; rat No 1, 1 h): 75.8%
- Plasma levels of ABR-215691 from the administered compound ([1]; rat No 1, 1 h, peroral 2.5 mg/kg): 64.0 nM
- Plasma level ([1]; rat No 1, 1 h): 13394 nM
- Ratio ABR-215050-dx/ABR-215050 (plasma levels) ([1]; rat No 2, 2 h): 0.99
- Ratio of metabolite plasma levels (ABR-215691 from ABR-215050-dx / from ABR-215050) ([1]; rat No 2, 2 h): 0.30
- Reduction of amide-N demethylation ([1]; rat No 2, 2 h): 70.5%
- Plasma levels of ABR-215691 from the administered compound ([1]; rat No 2, 2 h, peroral 2.5 mg/kg): 93.9 nM
- Plasma level ([1]; rat No 2, 2 h): 13665 nM
- Ratio ABR-215050-dx/ABR-215050 (plasma levels) ([1]; rat No 3, 3 h): 0.99
- Ratio of metabolite plasma levels (ABR-215691 from ABR-215050-dx / from ABR-215050) ([1]; rat No 3, 3 h): 0.24
- Reduction of amide-N demethylation ([1]; rat No 3, 3 h): 75.7%
- Plasma levels of ABR-215691 from the administered compound ([1]; rat No 3, 3 h, peroral 2.5 mg/kg): 46.6 nM
- Plasma level ([1]; rat No 3, 3 h): 7322 nM
- Ratio ABR-215050-dx/ABR-215050 (plasma levels) ([1]; rat No 4, 4 h): 1.00
- Ratio of metabolite plasma levels (ABR-215691 from ABR-215050-dx / from ABR-215050) ([1]; rat No 4, 4 h): 0.25
- Reduction of amide-N demethylation ([1]; rat No 4, 4 h): 74.6%
- Plasma levels of ABR-215691 from the administered compound ([1]; rat No 4, 4 h, peroral 2.5 mg/kg): 94.6 nM
- Plasma level ([1]; rat No 4, 4 h): 17824 nM
- anti-tumor effect (in words) (LNCaP tumor): retains a high therapeutic activity
- mean fold induction of CYP1A2 (CYP1A2): 5.5
- reduction of the fold induction of CYP1A2 versus ABR-215050 (CYP1A2): 68%
- CYP1A2 activity (MROD), Mean (CYP1A2; 1 mg/kg): 111 pmol/mg prot/min
- reduction of the fold induction of CYP1A1 versus ABR-215050 (CYP1A1; (42-11.5)/42×100%): 73%
- CYP1A1 activity (EROD), Mean (CYP1A1; group mean, 1 mg/kg perorally days 1-4): 534 pmol/mg prot/min
- mean fold induction of CYP1A1 (CYP1A1; group mean, versus water group): 11.5
- CYP1A1 activity (EROD) (CYP1A1; individual rat, 1 mg/kg perorally days 1-4, liver microsomes 24 h after final dose, 1 mg/kg): 556 pmol/mg prot/min and 511 pmol/mg prot/min
- CYP1A1 Fold induction (CYP1A1; individual rat, versus water group): 12 and 11

Compound: CN(C(=O)c1c(O)c2c(O)cccc2n(C)c1=O)c1ccc(C(F)(F)F)cc1 [ABR-222097]
- CYP1A induction (in words) [2]: not to induce CYP1A
- water solubility (in words) (Water solubility): highly water soluble
